According to patent publication US20230263759A1, “PARENTERAL NUTRITION FORMULATION” (BAXTER INTERNATIONAL INC., priority 2020, published 2023):

Legend:
[1] = Stability of butyrate derivatives in PN compositions (sterilization, storage; GC-FID); type: physicochemical; conditions: for free butyric acid released in the lipid chamber during sterilization: after compounding and sterilization of the bags
Procedure: The concentration of arginine butyrate can be varied relatively broadly over the disclosed range.
Compositions used are described in Table 4 and Table 5. After compounding of the respective butyrate derivatives into the respective chambers of the bags and following sterilization, free butyric acid was measured in the lipid chamber (for tributyrin and DPBG compositions) and the butyrate content in the amino acid chamber was determined. […] In case of the amino acid chamber, the recovery of butyrate after sterilization corresponds to what was introduced. Accordingly, no deterioration of the salt occurred during or after sterilization. In addition, the stability of the composition over time (12 months, 25° C., 40% RH) was confirmed. The free butyric acid can be quantified by GC-FID, after sample preparation by liquid-liquid extraction of the lipid emulsion or directly from amino acid solution. These methods are known in the art.

[2] = test system: cytokines Il-1β, Il-6, TNF-α, Il-8, Il-10; test: Cytokine quantification in jejunal and ileal samples; type: in vivo, pig; conditions: compared to standard PN (s-PN)
Procedure: Digestive Diseases and Sciences 2002; 47:2049-2055. Jejunal and ileal samples were homogenized in double-distilled water, and the Bradford protein assay (Biorad, Hercules, Calif., USA) was performed on homogenate and plasma samples. Protein (30 μg) from each sample was denatured by boiling, and proteins were separated by size using 12.5% sodium dodecyl sulfate polyacrylamide gel electrophoresis. Separated proteins were transferred to polyvinylidene difluoride membranes (Biorad) using a semidry transfer apparatus (Biorad). Western blot analysis for TNF-alpha, IL-1beta, Il-10 and IL-6 was performed using porcine-specific polyclonal antibodies (Endogen, Woburn, Mass., USA). A mouse anti-pig monoclonal TNF-alpha antibody was used to detect TNF-alpha ([…]) Rabbit anti-pig polyclonal antibodies specific for IL-1beta and IL-6 were used to detect IL-1beta ([…]), Il-10 ([…]) and IL-6 ([…]). Membranes were developed using the Opti-4CN kit (Biorad) and photographed using the FOTO/Analyst Image Analysis System (Fotodyne, Inc., Hart-land, Wisconsin, USA). Densitometry of TNF-alpha, IL-1beta, IL-6, and Il-10 was performed using Collage Image Analysis Software 4.0 (Fotodyne, Inc.). Results are shown in FIG. 15 (Il-6), FIG. 16 (Ill-beta), FIG. 17 (TNF-alpha) and FIG. 18 (Il-10).

[3] = test system: metastatic colorectal cancer patients; conditions: aqueous solution, pH 7.7; phase I clinical trial; cited from earlier work
sIgA = test: IgA quantification (sandwich ELISA of intestinal washings); type: in vivo, pig; conditions: 10 mmol/L; compared to standard PN (s-PN)
Procedure: Small intestine probes for IgA level determination were obtained by flushing the small intestine with chilled HBSS (Hank's Balanced Salt Solution). Nasal and bronchoalveolar washings for measurement of respiratory tract IgA levels were obtained by lavage with 1 mL phosphate-buffered saline solution under anesthesia. The washings were stored in a −80° C. freezer until IgA analysis. IgA was measured in small intestinal and respiratory tract washings by sandwich enzyme-linked immunosorbent assay using a polyclonal goat anti-mouse IgA (Sigma) to coat the plate, a purified mouse IgA (Zymed Laboratories, San Francisco, Calif.) as the standard, and a horseradish peroxidase-conjugated goat anti-mouse IgA (Sigma) Results are shown in FIG. 13.

Row | free butyric acid released in the lipid chamber during sterilization [1] | Compound | Ileal Cytokine Concentration (less pro-inflammatory cytokines Il-1β, Il-6, TNF-α) ([2]; 10 mmol/L) | Ileal Cytokine Concentration (more anti-inflammatory cytokines Il-8, Il-10) ([2]; 10 mmol/L) | Jejunal Cytokine Concentration (less pro-inflammatory cytokines Il-1β, Il-6, TNF-α) ([2]; 10 mmol/L) | Ileal Cytokine Concentration (less pro-inflammatory cytokines Il-1β, Il-6, TNF-α) ([2]; 30 mmol/L) | Jejunal Cytokine Concentration (less pro-inflammatory cytokines Il-1β, Il-6, TNF-α) ([2]; 30 mmol/L) | Jejunal Cytokine Concentration (more anti-inflammatory cytokines Il-8, Il-10) ([2]; 30 mmol/L) | tolerated dose [3] [g/kg/day] | shelf-life over which stable in the amino acid formulation ([1]; 25° C. and 40% relative humidity (RH), also stable during production, sterilization) | Jejunal Cytokine Concentration (more anti-inflammatory cytokines Il-8, Il-10) ([2]; 10 mmol/L) | Jejunal sIgA Concentration (sIgA)
1 | only very limited amounts | CCCC(=O)OCC(COC(=O)CCC)OC(=O)CCC [Tributyrin] | ++ (++ indicates P < 0.05) | + | +++ (+++ indicate P < 0.01) | ++ (++ indicates P < 0.05) | +++ (+++ indicate P < 0.01) | + | – | – | – | –
2 | – | L-arginine, butanoate (3:4) [Arginine Butyrate] | +++ (+++ indicate P < 0.01) | +^4 | +++ (+++ indicate P < 0.01) | – | – | – | 3 | at least 12 months | ++ (++ indicates P < 0.05) | +++^3 (+++ indicate P < 0.01)
3 | only very limited amounts | CCCCCCCCCCCCCCCC(=O)OCC(COC(=O)CCC)OC(=O)CCCCCCCCCCCCCCC (stereo not drawn) [DPBG, 1,2-Dipalmitoyl 3-butyryl glycerol] | – | – | – | – | – | – | – | – | – | –
